From US20080194619A1, “Anti-Hiv Quinuclidine Compounds” (priority 2004, published 2008)
Where two headings read alike, the source gives them in different places.

How the values were obtained:
[1] = test system: HeLa cells; assay: MTT cytotoxicity assay (mitochondrial integrity)
Description: Following the above described cell treatment protocol, the levels of cellular 3-(4,5-dimehtylthiazol-2-yl)-2,5-diphenyl tetrazolium bromide (MTT) reduction, a measure of mitochondrial integrity, were determined in order to examine whether the compounds tested were cytotoxic.

[2] = test system: HIV MDR 769 strain; assay: AV-Finder-HIV assay, multi-drug resistant HIV MDR 769 strain replication in HeLa cells; type: cell-based
Source text: (§1) In order to study the viral replication in vitro, the GenPhar AV-Finder™-HIV Drug Discovery Assay was used, a novel technology that consists of two components: (1) a cloned, continuous-passage HeLa cell line containing an HIV-1 tat-activated molecular switch and a Green Fluorescent Protein reporter gene and (2) a recombinant adenovirus (rAd) vector containing the genes for all three of the HIV-1 receptor/co-receptors (CD4, CXCR4, and CCR5) to transduce into HeLa cells and convert them into highly susceptible HIV-1 indicator cells for use in the assay. The indicator cells over-express the HIV-1 receptor genes and are readily infected with any HIV-1 strain or isolate. All HIV-1 strains tested thus far, regardless of co-receptor preference, and all subtypes or classes of HIV-1 will infect these indicator cells. Infected cells fluoresce brightly so that the inhibition of virus replication by potential antiviral drugs can be readily detected and quantified using standard laboratory plate reader technology.
(§2) Detector plates are set up at day 1 by adding HeLa cells (3000/well) to the adenovirus AD-3R in DMEM containing CCS in 96-well plates and incubated at 37° C. under 95% humidity and 5% CO2 for 2 days. […] At day 4, the medium was replaced by fresh medium containing the corresponding concentration of the compounds of interest. The infectivity was assessed by measuring the fluorescence on each well at day 7 ([…]). […] At day 5, the medium was replaced by fresh medium containing the corresponding concentration of compounds of interest and the infectivity was assessed by measuring the fluorescence on each well at day 8. Results are expressed as percentage of inhibition of the viral replication.

[3] = test system: HIV-1 IIIB; assay: GenPhar AV-Finder-HIV Drug Discovery Assay, HIV-1 IIIB replication in HeLa indicator cells; type: cell-based; conditions: for IC50: read-out: IC50 of HIV replication inhibition
Source text: as §1, with “All HIV-1 strains tested thus far, regardless of co-receptor preference, and all subtypes or classes of HIV-1 will infect these indicator cells.” left out
as §2
(4-amino-phenyl)-(1-aza-bicyclo[2.2.2]oct-4-yl)-methanone (FIG. 1) was used either alone dissolved in water (SP003) or in an aqueous formulation (SP003A) containing zinc sulfate heptahydrate and ascorbic acid at the ratio of 26.6/1/1.6 (for example 200 mg SP003 with 7.5 mg of zinc sulfate heptahydrate and 12.5 mg of ascorbic acid; Xu, J. et al., J. Pharmacol. Exper. Ther., (2003) 307:1148-1157.

O=c1[nH]cnc2c1ncn2[C@H]1CC[C@@H](CO)O1 [ddI]
IC50 [1]: 89000 nM

Nc1ccc(C(=O)C23CCN(CC2)CC3)cc1 [SP003, (4-Amino-phenyl)-(1-aza-bicyclo[2.2.2]oct-4-yl)-methanone]
cell toxicity (MTT cytotoxicity assay) ([1]; all concentrations tested, up to 100 μM): devoid of cell toxicity | IC50 ([2]; Human immunodeficiency virus 1, HeLa, read-out: IC50 of HIV MDR 769 viral replication inhibition): 0.01 nM | inhibition of HIV MDR 769 viral replication ([2]; without pre-medication, FIG. 5): 60% | inhibition of HIV replication ([3]; 48 hours pretreatment, FIG. 4): 50% | IC50 ([3]; Human immunodeficiency virus 1, IIIB, HeLa, 48 hours pretreatment, FIG. 4): 0.03 nM | inhibition of HIV-1 IIIB viral replication (in words) ([3]; no pre-medication, HeLa cells, FIG. 2): higher efficiency than the classical antiviral agent ddI | inhibition of HIV-1 IIIB replication ([3]; no pre-medication, concentrations in the nanomolar range): up to 50%

Cc1cn([C@H]2C[C@H](N=[N+]=[N-])[C@@H](CO)O2)c(=O)[nH]c1=O [AZT, reference compound]
IC50 ([1]; read-out: toxicity IC50 (MTT cytotoxicity assay)): 161000 nM | inhibition of HIV MDR 769 strain replication (in words) ([2]; without pre-medication, FIG. 5): not effective | curve plateau, inhibition of viral replication ([3]; 24 hours pre-medication): around 40% | IC50 ([3]; 48 hours pretreatment, FIG. 4): 30 nM
